Measured values as given in patent US10995068B2, “Synthetic sphingolipid-like molecules, drugs, methods of their synthesis and methods of treatment” (The Regents of the University of California, priority 2015, dated 2021).

Tests used:
[1] = system: normal human peripheral blood mononuclear cells (PBMC); test: Colony formation assay, PBMC; type: cell-based
Experimental: The difference in sensitivity stems from the inability of neoplastic cells to adapt to decreases of metabolism.
Cell analysis: Viability and 4F2hc expression are determined by vital dye exclusion and flow cytometry. Oxygen consumption is measured with an XF24 Extracellular Flux Analyzer (Seahorse Bioscience); values are normalized to total protein. Confocal microscopy is performed on either a Zeiss LSM780 or a Nikon Eclipse Ti; vacuolation was monitored using a Nikon TE2000-S equipped with DIC filters. Anchorage-independent growth of SW620 cells is measured in DMEM-10 containing 0.35% agarose with a 0.5% agarose bottom layer. PBMNCs are obtained from the normal blood donor program run by the CTSA-supported Institute for Clinical and Translational Science at UCI under IRB protocols 2015-1883 (Edinger) and 2001-2058 (ICTS). […] Plates were incubated at 37° C. in a humidified atmosphere containing 5% CO2 and colonies were counted after 12 days.
Cell culture and reagents. […] Cell viability was measured by vital dye exclusion using either propidium iodide or DAPI at 1 μg/ml. Analysis of cell surface 4F2hc levels with PE-conjugated anti-CD98 was restricted to viable cells as determined by DAPI exclusion. Anchorage-independent growth of SW620 cells was measured in DMEM-10 containing 0.35% low melt agarose with a 0.5% agarose bottom layer. […]

[2] = system: K-RasG12D expressing cells; test: Macropinosome fusion with lysosomes; type: cell-based; settings: dextran
From the text: In cells with activated Ras, macropinocytosis might also confer resistance to nutrient transporter down-regulation. However, PI(3,5)P2 is also required for macropinosome degradation. […] Macropinosomes that fail to fuse with lysosomes would not be able to supply nutrients, such as amino acids. Thus, by disrupting PIKfyve localization, sphingolipid-like compounds limit access to lysosome-derived nutrients at the same time it down-regulates transporters for amino acids and glucose.
Light Microscopy: Brightfield and epifluorescence microscopy were conducted using a Nikon TE2000-S fluorescence microscope; confocal microscopy was performed on a Zeiss LSM780 confocal microscope or Nikon Eclipse Ti spinning disk confocal microscope. […] Co-localization was determined using JACoP plugin in ImageJ software. Macropinocytosis was measured after 16 h incubation in serum-free DMEM. p53−/−; LSL-K-RasG12D MEFs before (LSL) or after (KRasG12D) introduction of Cre were serum starved for 16 h and then treated with macropinocytosis inhibitor 5-(N-ethyl-N-isopropyl) amiloride (EIPA, 75 μM) for 1 h or SH-BC-893 for 6 h. Oregon Green dextran (Life Technologies, cat #D7173) (1 mg/mL) and Lysotracker Red (Life Technologies, cat #L-7525) (1:2,000 dilution) were added for 30 min and live cells were evaluated on the spinning disc confocal microscope. […]

CCCCCCCCc1ccc([C@H]2CCN[C@@H]2CO)cc1.Cl [Compound 5, (2S,3R)-2-(hydroxymethyl)-3-(4-octylphenyl)Pyrrolidinium chloride]
sensitivity in colony formation assays [1]: resistant | macropinosome fusion with lysosomes [2]: dramatically reduced macropinosome fusion with lysosomes
